Measured values taken from patent US10570179B2, “Substituted urea depsipeptide analogs as activators of the CLPP endopeptidase” (priority 2016, dated 2020).
Numbered stars: 1 amine (or outer) side, 2 acyl side, 3 side chain; on linkers, the order of the positions; unused ones are H or OH. Bridge positions count the residues as written; N and C are the ends. Square brackets hold non-standard residues; d marks the D form. Peptide text beside a SMILES is read from it. * marks the point of attachment. ξ: configuration not given here. Piperazine(2S-CO,4-Me) = CN1CCN[C@H](C(=O)O)C1; NH(1,3-benzodioxol-5-yl) = c1cc2c(cc1N*)OCO2; Morpholine(3S-CO) = O=C(O)[C@@H]1COCCN1; Phe(3-Me) = Cc1cccc(C[C@H](N)C(=O)O)c1; NH(4-Cl-2-F-phenyl) = Fc1cc(Cl)ccc1N*; Pro(4R-Me) = C[C@H]1CN[C@H](C(=O)O)C1; X1 = O=C([C@@H]1CSCCN1[*:1])[*:2]; Hyp = O=C(O)[C@@H]1C[C@@H](O)CN1; ξNMeThr = CNC(C(=O)O)[C@@H](C)O; aThr = C[C@H](O)[C@H](N)C(=O)O; X3 = c1cc2c(cc1N*)OCCO2; CO = O=C([*:1])[*:2]

Experiments:
Plasma stability assay = type: in vitro ADME, mouse
Procedure: The plasma stability property of early drug discovery compounds can influence the in vivo efficacy of the test compounds/drugs. Human and/or mouse plasma degradation is determined using multiple time points to monitor the rate of disappearance of the parent compound during incubation.
Sample preparation for plasma stability was modified from Di et al. (2005) Int. J. Pharm. 297(1-2): 110-119. A set of incubation times of 0, 3, 24, and 48 hour were used. DMSO stock solutions of test compounds were prepared at 10 mM concentration. 1.8 μL of each test compound was each added directly to 1.8 mL of human/mouse plasma to get the final concentration of 10 μM. This compound/matrix was mixed and 70 μL was transferred to 8 time points plates (each in triplicate wells). For the Time 0 plate, 210 μL of cold acetonitrile with internal standard (4 μg/mL warfarin) was added to each well and no incubation needed. For other seven time points' plate, the plate was incubated at 37° C. for required time, followed by quenching of the reaction by adding 210 μL of cold acetonitrile with internal standard (4 μg/ml warfarin) to each well. All of the plates were sealed and mixed well at 600 rpm for 10 min and were centrifuged at 4000 rpm for 20 min. The supernatants (120 μL) were transferred to analytical plates for analysis by LCMS. Conditions for Waters ACQUITY-UPLC-MS-UV system was described separately. The plasma stability was evaluated via the half-life from least-squares fit of the multiple time points based on first-order kinetics.

[1] = Plasma protein binding, rapid equilibrium dialysis; type: in vitro ADME, human; details: 10 μM
Procedure: This assay determines plasma protein binding of a drug/compound and free drug concentration in plasma using rapid equilibrium dialysis, which allow the aqueous component of plasma containing the free drug/compound through a dialysis membrane (MWCO˜8,000).
Solutions were prepared at 10 mM in DMSO. Dulbecco's phosphate buffered saline (DPBS; pH 7.4) was obtained from Invitrogen (Carlsbad, Calif.). Single-Use RED (rapid equilibrium dialysis) device was obtained from Thermo scientific (Rockford, Ill.). Human plasma was obtained from Innovative Research INC (Novi, Michigan, Ill).
Sample preparation for plasma protein binding was modified from Waters' method. (Waters et al. (2008) J. Pharm. Sci. 97(10): 4586-95). The Teflon base plate with the RED inserts (MWCO 8 K) were allowed to use without any pre-condition the membrane inserts. Human plasma was thawed and centrifuged at 1000 rpm for 2 min to remove any particulates. Each compound was prepared at 10 μM in human plasma. This was done by adding 1 μL, of drug solution (10 mM in DMSO) to 1000 μL, of human plasma (0.1% DMSO). Spiked plasma solutions (300 μL) were placed into the sample chamber (indicated by the red ring) and 500 μL, of DPBS into the adjacent chamber. The plate was sealed and incubated at 37° C. on an orbital shaker (100 rpm) for 4 hours. After incubation, the seal was removed from the RED plate and the volume of the insert confirmed—little to no volume change occurred. Aliquots (50 μL) were removed from each side of the insert and dispensed into a 96-well deep plate. An equal volume of blank plasma or DPBS was added to the required wells to create analytically identical sample matrices (matrix matching). To each sample 200 μL, of ACN containing 4 μg/mL warfarin IS was added. All of the plates were sealed and mixed well at 600 rpm for 10 min and were centrifuged at 4000 rpm for 20 min. The supernatants (120 μL) were transferred to analytical plates for analysis by LCMS. Conditions for Waters ACQUITY-UPLC-MS-UV system were described separately. The test compound concentrations were quantified in both buffer and plasma chambers via peak areas relative to the internal standard. The percentage of the test compound bound to plasma was calculated on following equations: % Free=(Concentration buffer chamber/concentration plasma chamber)×100% and % Bound=100%-% Free.

[2] = Microsomal metabolic stability; type: in vitro ADME, human
Procedure: Compounds were initially prepared by dissolving them into DMSO at a final concentration of 10 mM. NADPH regenerating solutions A and B and mouse liver microsomes (CD-1) were obtained from BD Gentest (Woburn, Mass.). Ninety-six well deep well plates were obtained from MidWest Scientific Inc (Valley Park, Mo.).
Sample preparation for microsomal stability was modified from methods of Di, L., et al., Int J Pharm. 2005 Jun. 13; 297(1-2):110-9. A set of incubation times of 0, 15, 30, 60, 120, and 240 minutes were used. Mouse liver microsomal solutions were prepared by adding 58 μL of concentrated human or mouse liver microsomes (20 mg/mL protein concentration) to 1.756 mL of 0.1 M potassium phosphate buffer (pH 7.4) and 5 μL of 0.5 M EDTA to make a 0.6381 mg/mL (protein) microsomal solution. NADPH regenerating agent contained 113 μL of NADPH A, 23 μL of NADPH B, and 315 μL of 0.1 M potassium phosphate buffer (pH 7.4). The diluted test compound solutions (2 μL) were each added directly to a 1.79 mL of liver microsomal solution. This solution was mixed and 90 μL was transferred to 6 time points plates (each in triplicate wells). For the time 0 plate, 225 μL of cold acetonitrile with internal standard ([…] warfarin) was added to each well, followed by addition of NADPH regenerating agent (22.5 μL) and no incubation. For other five time points' plate, NADPH regenerating agent (22.5 μL) was added to each well to initiate the reaction. The plates were incubated at 37° C. for the required time, followed by quenching of the reaction by adding 225 μL of cold acetonitrile with internal standard (4 μg/ml warfarin). All of the plates were sealed and mixed well at 600 rpm for 10 minutes followed by centrifugation at 4000 rpm for 20 minutes. The supernatants (120 μL) were transferred to analytical plates for analysis by LCMS. LCMS conditions were described in the materials and instrumentation section above. The metabolic stability is evaluated via the half-life from least-squares fit of the multiple time points based on first-order kinetics.

| Structure (SMILES) | Mouse (Plasma stability assay; mouse, 10 μM) [h] | Human ([1]; human, 4 h, pH 7.4) [%] | Human ([2]; human, pH 7.4) | Mouse (Plasma stability assay; plasma stability half-life, mouse plasma, 37° C.) [h] | Human ([1]; plasma binding, % Bound, human plasma) [%] | Human ([2]; microsomal metabolic stability half-life, human liver microsomes) [h] |
| --- | --- | --- | --- | --- | --- | --- |
| Cc1cccc(C[C@H](NC(=O)Nc2ccc3c(c2)OCCO3)C(=O)N[C@H]2COC(=O)[C@@H]3C[C@@H](C)CN3C(=O)[C@H](C)NC(=O)[C@@H]3CCCCN3C(=O)[C@@H]3CCCN3C2=O)c1 [Compound 22, (S)-2-(3-(2,3-DIHYDROBENZO[B][1,4]DIOXIN-6-YL)UREIDO)-N-((2R,6S,8AS,14AS,20S,23AS)-2,6-DIMETHYL-5,8,14,19,23-PENTAOXOOCTADECAHYDRO-1H,5H,14H,19H-PYRIDO[2,1-I]DIPYRROLO[2,1-C:2′,1′-L][1]OXA[4,7,10,13]TETRAAZACYCLOHEXADECIN-20-YL)-3-(M-TOLYL)PROPANAMIDE] | 46.15 | 97.1 ± 0.2 | 3.57 ± 0.52 h |  |  |  |
| Cc1cccc(C[C@H](NC(=O)Nc2ccc(Cl)cc2F)C(=O)N[C@@H]2C(=O)N3CCC[C@H]3C(=O)N3CCSC[C@H]3C(=O)N[C@@H](C)C(=O)N3C[C@H](C)C[C@H]3C(=O)O[C@H]2C)c1 [Compound 38, (S)-2-(3-(4-CHLORO-2-FLUOROPHENYL)UREIDO)-3-(M-TOLYL)-N-((6AS,12S,13S,15AS,17R,21S,23AR)-13,17,21-TRIMETHYL-6,11,15,20,23-PENTAOXOOCTADECAHYDRO-6H,11H,15H-DIPYRROLO[2,1-C:2′,1′-L][1,4]THIAZINO[3,4-I][1]OXA[4,7,10,13]TETRAAZACYCLOHEXADECIN-12-YL)PROPANAMIDE] ({NH(4-Cl-2-F-phenyl)-CO}-[Phe(3-Me)][aThr]P[X1]A[Pro(4R-Me)]; ester 2-C) | >50 | 99.5 ± 9.5 | 1.00 ± .003 h |  |  |  |
| Cc1cccc(C[C@H](NC(=O)Nc2ccc(Cl)cc2F)C(=O)N[C@@H]2C(=O)N3CCC[C@H]3C(=O)N(C)C([C@@H](C)O)C(=O)N[C@@H](C)C(=O)N3C[C@H](C)C[C@H]3C(=O)O[C@H]2C)c1 (stereo partly drawn) [Compound 5] ({NH(4-Cl-2-F-phenyl)-CO}-[Phe(3-Me)][aThr]P[ξNMeThr]A[Pro(4R-Me)]; ester 2-C) | >50 | 98.0 ± 1.0 | 0.31 ± 0.03 h |  |  |  |
| Cc1cccc(C[C@H](NC(=O)Nc2ccc(Cl)cc2F)C(=O)N[C@H]2COC(=O)[C@@H]3C[C@@H](C)CN3C(=O)[C@H](C)NC(=O)[C@@H]3CCCCN3C(=O)[C@@H]3C[C@@H](O)CN3C2=O)c1 [Compound 10] | >50 | 99.7 ± 0.2 | 0.29 ± 0.04 h |  |  |  |
| Cc1cccc(C[C@H](NC(=O)Nc2ccc3c(c2)OCO3)C(=O)N[C@H]2COC(=O)[C@@H]3C[C@@H](C)CN3C(=O)[C@H](C)NC(=O)[C@@H]3CN(C)CCN3C(=O)[C@@H]3CCCN3C2=O)c1 [Compound 17, (S)-2-(3-(BENZO[D][1,3]DIOXOL-5-YL)UREIDO)-3-(M-TOLYL)-N-((6AS,12S,15AS,17R,21S,23AS)-2,17,21-TRIMETHYL-6,11,15,20,23-PENTAOXOOCTADECAHYDRO-2H,6H,11H,15H-PYRAZINO[2,1-I]DIPYRROLO[2,1-C:2′,1′-L][1]OXA[4,7,10,13]TETRAAZACYCLOHEXADECIN-12-YL)PROPANAMIDE] ({NH(1,3-benzodioxol-5-yl)-CO}-[Phe(3-Me)]SP[Piperazine(2S-CO,4-Me)]A[Pro(4R-Me)]; ester 2-C) | 6.46 ± 0.4 | 95.4 ± 1.1 | 1.58 ± 0.25 h |  |  |  |
| Cc1cccc(C[C@H](NC(=O)Nc2ccc3c(c2)OCCO3)C(=O)N[C@@H]2C(=O)N3C[C@H](O)C[C@H]3C(=O)N3CCOC[C@H]3C(=O)N[C@@H](C)C(=O)N3C[C@H](C)C[C@H]3C(=O)O[C@H]2C)c1 [Compound 27, (S)-2-(3-(2,3-DIHYDROBENZO[B][1,4]DIOXIN-6-YL)UREIDO)-N-((6AS,8R,12S,13S,15AS,17R,21S,23AS)-8-HYDROXY-13,17,21-TRIMETHYL-6,11,15,20,23-PENTAOXOOCTADECAHYDRO-6H,11H,15H-[1,4]OXAZINO[3,4-I]DIPYRROLO[2,1-C:2′,1′-L][1]OXA[4,7,10,13]TETRAAZACYCLOHEXADECIN-12-YL)-3-(M-TOLYL)PROPANAMIDE] ({X3-CO}-[Phe(3-Me)][aThr][Hyp][Morpholine(3S-CO)]A[Pro(4R-Me)]; ester 2-C) | >50 | 91.1 ± 1.1 | 0.49 ± .495 h |  |  |  |
| Cc1cccc(C[C@H](NC(=O)Nc2ccc(Cl)cc2F)C(=O)N[C@@H]2C(=O)N3CCC[C@H]3C(=O)N3CCN(C)C[C@H]3C(=O)N[C@@H](C)C(=O)N3C[C@H](C)C[C@H]3C(=O)O[C@H]2C)c1 [Compound 11, (S)-2-(3-(4-CHLORO-2-FLUOROPHENYL)UREIDO)-N-((6AS,12S,13S,15AS,17R,21S,23AS)-2,13,17,21-TETRAMETHYL-6,11,15,20,23-PENTAOXOOCTADECAHYDRO-2H,6H,11H,15H-PYRAZINO[2,1-I]DIPYRROLO[2,1-C:2′,1′-L][1]OXA[4,7,10,13]TETRAAZACYCLOHEXADECIN-12-YL)-3-(M-TOLYL)PROPANAMIDE] ({NH(4-Cl-2-F-phenyl)-CO}-[Phe(3-Me)][aThr]P[Piperazine(2S-CO,4-Me)]A[Pro(4R-Me)]; ester 2-C) | 36.62 | 97.9 ± 0.3 | 0.91 ± 0.10 h |  |  |  |
| Cc1ccc(NC(=O)N[C@@H](Cc2cccc(C)c2)C(=O)N[C@H]2COC(=O)[C@@H]3C[C@H](C)CN3C(=O)[C@H](C)NC(=O)[C@@H]3CCCCN3C(=O)[C@@H]3CCCN3C2=O)cc1 (stereo in doubt) [Compound 43, (S)—N-((2S,6S,8AS,14AS,20S,23AS)-2,6-DIMETHYL-5,8,14,19,23-PENTAOXOOCTADECAHYDRO-1H,5H,14H,19H-PYRIDO[2,1-I]DIPYRROLO[2,1-C:2′,1′-L][1]OXA[4,7,10,13]TETRAAZACYCLOHEXADECIN-20-YL)-3-(M-TOLYL)-2-(3-(P-TOLYL)UREIDO)PROPANAMIDE] |  |  |  | 21.9 | 72.9 ± 1.4 | 1.36 ± 0.14 |
